In patent US6878732B2, “NK1 antagonists” (Schering Corporation, priority 2002, dated 2005) one finds Ki data, which are given here for 7 compounds.

Structures are written as SMILES. “And” between values parts separate entries of the source, which are not always exact repeats. Equal entries are not always repeated.

This assay deals with NK1 receptor (Homo sapiens, UniProt P25103). The experiment in a line: NK1 receptor binding: inhibition of Substance P binding, Ki by the Chang-Prusoff equation. The conditions noted are these: inhibition constant from the concentration giving 50% inhibition of binding; procedure of Duffy et al. The source says: The percent of MSB is defined by the following equation, wherein “dpm” represents “disintegrations per minute”: [formula]
Sequence of NK1 receptor (P25103 whole entry, species assumed): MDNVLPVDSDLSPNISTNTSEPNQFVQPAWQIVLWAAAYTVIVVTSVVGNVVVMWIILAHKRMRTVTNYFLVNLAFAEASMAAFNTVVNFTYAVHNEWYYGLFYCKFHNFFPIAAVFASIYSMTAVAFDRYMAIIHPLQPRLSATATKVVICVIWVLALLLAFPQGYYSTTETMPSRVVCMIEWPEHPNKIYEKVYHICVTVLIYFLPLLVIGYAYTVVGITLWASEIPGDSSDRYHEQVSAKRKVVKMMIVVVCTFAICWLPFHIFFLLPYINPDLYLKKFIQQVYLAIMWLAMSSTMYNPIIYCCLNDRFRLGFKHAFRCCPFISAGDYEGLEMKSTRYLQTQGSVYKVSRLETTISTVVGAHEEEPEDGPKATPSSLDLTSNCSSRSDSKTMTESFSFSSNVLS

The compound `C[C@@H](OC[C@]1(c2ccccc2)C[C@]2(C1)NC(=O)NC2=O)c1cc(C(F)(F)F)cc(C(F)(F)F)c1` [Example 11a] showed an inhibition constant Ki of 0.13 to 1.78 nM.
The figure for `C[C@@H](OC[C@]1(c2ccccc2)C[C@@]2(C1)NC(=O)NC2=O)c1cc(C(F)(F)F)cc(C(F)(F)F)c1` [Example 11b] is 0.13 to 1.78 nM.
`C[C@@H](OC[C@]1(c2ccccc2)C[C@@]2(CNC(=O)N2)C1)c1cc(C(F)(F)F)cc(C(F)(F)F)c1` [Example 12b] came in with an inhibition constant Ki of 0.13 to 1.78 nM.
Take `CNC(=O)[C@]1(N)C[C@@](CO[C@H](C)c2cc(C(F)(F)F)cc(C(F)(F)F)c2)(c2ccccc2)C1` [Example 27]: the inhibition constant Ki lay in the range of 0.13 to 1.78 nM.
Regarding `C[C@@H](OC[C@]1(c2ccccc2)C[C@](N)(C(N)=O)C1)c1cc(C(F)(F)F)cc(C(F)(F)F)c1` [Example 28], the Ki was in the range of 0.13 to 1.78 nM.
In the case of `C[C@@H](OC[C@]1(c2ccccc2)C[C@]2(C1)N=CNC2=O)c1cc(C(F)(F)F)cc(C(F)(F)F)c1` [Example 46] it was 0.13 to 1.78 nM.
The figure for `C[C@@H](OC[C@]1(c2ccccc2)C[C@]2(C1)NCNC2=O)c1cc(C(F)(F)F)cc(C(F)(F)F)c1` [Example 49] is 0.13 to 1.78 nM and 0.2 nM.
